In PubChem BioAssay AID248 (DTP/NCI, 2004):
Where “and” joins values, the source holds several entries; their conditions need not be identical. Equal entries are not always repeated. Toxic doses and inconclusive results are not listed. Cut-off read from the data, not from the text of the source: active = T/C of 150% or more; inactive = T/C below 125%.

System: L1210 leukemia ip in BDF1 mice, survival T/C
Assay: NCI In Vivo Anticancer Drug Screen. Data for tumor model L1210 Leukemia (intraperitoneal) in B6D2F1 (BDF1) mice
Conditions: endpoint: mean survival time, higher = longer survival
In short: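 Tumor cells were implanted, animals were treated, and survival was followed. The result divides the treated measurement by the vehicle-control measurement.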

Measured: T/C

CCOC(=O)c1ccc(NC(=O)Oc2ccc3ccccc3c2)cc1
inactive: dose: 100.0 mg/kg/injection, schedule: Q01DX001 (ip), vehicle: saline with Tween-80 96 % of control | dose: 100.0 mg/kg/injection, schedule: Q01DX009 (ip), vehicle: saline with Tween-80 100 % of control and 90 % of control | dose: 100.0 mg/kg/injection, schedule: Q04DX002 (ip), vehicle: saline with Tween-80 99 % of control and 88 % of control | dose: 200.0 mg/kg/injection, schedule: Q01DX001 (ip), vehicle: saline with Tween-80 93 % of control and 86 % of control | dose: 200.0 mg/kg/injection, schedule: Q01DX009 (ip), vehicle: saline with Tween-80 92 % of control and 100 % of control | dose: 200.0 mg/kg/injection, schedule: Q04DX002 (ip), vehicle: saline with Tween-80 97 % of control and 91 % of control | dose: 400.0 mg/kg/injection, schedule: Q01DX001 (ip), vehicle: saline with Tween-80 93 % of control and 91 % of control | dose: 400.0 mg/kg/injection, schedule: Q01DX009 (ip), vehicle: saline with Tween-80 100 % of control and 90 % of control | dose: 400.0 mg/kg/injection, schedule: Q04DX002 (ip), vehicle: saline with Tween-80 92 % of control and 88 % of control

OC1c2ccccc2-c2c(F)c(F)c(F)c(F)c21 (stereo unspecified)
inactive: dose: 50.0 mg/kg/injection, schedule: Q01DX001 (ip), vehicle: carboxymethylcellulose (CMC) 96 % of control | dose: 100.0 mg/kg/injection, schedule: Q01DX001 (ip), vehicle: carboxymethylcellulose (CMC) 97 % of control | dose: 200.0 mg/kg/injection, schedule: Q01DX001 (ip), vehicle: carboxymethylcellulose (CMC) 94 % of control | dose: 400.0 mg/kg/injection, schedule: Q01DX001 (ip), vehicle: carboxymethylcellulose (CMC) 111 % of control

O=S(NOCc1ccccc1)c1ccccc1 (stereo unspecified)
inactive: dose: 100.0 mg/kg/injection, schedule: Q04DX002 (ip), vehicle: Klucel (hydroxypropylcellulose) (HPC) 107 % of control | dose: 200.0 mg/kg/injection, schedule: Q04DX002 (ip), vehicle: Klucel (hydroxypropylcellulose) (HPC) 107 % of control | dose: 400.0 mg/kg/injection, schedule: Q04DX002 (ip), vehicle: Klucel (hydroxypropylcellulose) (HPC) 111 % of control
